# Data published in patent US20240350489A1, “LOU064 FOR TREATING MULTIPLE SCLEROSIS” (NOVARTIS AG, priority 2021, published 2024).
# “Also recorded” adds a separate entry of the source.
# How the values were obtained:
# BTK [1] = target: T1, BTK (Mus musculus, UniProt P35991); assay: BTK occupancy in spleen, lymph nodes and brain homogenate, HumanMOG EAE; assay type: in vivo
# T1 construct: from tissue; host or cells: spleen, inguinal lymph nodes, blood and brain homogenate of C57BL/6 EAE mice
# Method: BTK occupancy in spleen was determined at 1, 5 and 8 hours after b.i.d. oral dosing of LOU064 (FIG. 4).
# BTK occupancy was assessed in brain homogenates that had been prepared for compound exposure analysis (FIG. 6). […] Variability in brain BTK occupancy might be due to the fact that the analysis was performed on the remainder of the homogenates prepared for compound level assessment.
# RatMOG-induced EAE = assay: RatMOG-induced EAE, short eight-day (pre-disease) protocol; set-up: species or system mouse; details: dosed in vivo 8 days; LOU064 1, 3 and 10 mg/kg
# Method: Isolated draining lymph node cells were incubated in vitro with RatMOG for 48 hours. Antigen-specific proliferation was determined by [^3H]-thymidine incorporation. Animals dosed in vivo with BTK inhibitors (LOU064, ibrutinib or Cyclosporin A (CsA) for 8 days. Group sizes n=4-5 per treatment.
# To elucidate further whether BTK inhibitor efficacy was directly linked to reduction in B-cell antigen-presenting function compounds were tested in recombinant RatMOG-induced EAE model. This EAE model shares many of the characteristics of recombinant HumanMOG-induced EAE with MOG-specific T-cells infiltrating the CNS and resulting in neurological paralysis. However, RatMOG-induced EAE is B-cell independent and the dendritic cells are the dominant antigen-presenting cells type. Therefore, BTK inhibitors would be predicted to have no significant efficacy in RatMOG-induced EAE unless drug treatment was associated with a broader, non-specific, immune suppression. In addition to LOU064, which was used at 1 mg/kg, 3 mg/kg and 10 mg/kg, the reference compound ibrutinib was tested.
# Cyclosporin A (CsA) acted as a positive control for direct T-cell immunosuppression. […] Ex vivo MOG-induced recall proliferation responses were studied using isolated splenocytes collected on day 8 post-immunization. In vivo BTK inhibitor treatment had no effect on recall responses (FIG. 12).
# BTK [2] = target: T1, BTK; assay: Trough BTK occupancy in spleen, blood and brain, RatMOG EAE; assay type: in vivo; details: 30 mg/kg b.i.d., 16 h after the last dose
# [3] = test system: MOG-specific immunoglobulin responses; assay: MOG-specific autoantibodies in serum, RatMOG EAE; assay type: in vivo, mouse; details: 30 mg/kg b.i.d., day 21, vs vehicle
# Excerpt: In immunized mice, treated with either vehicle or LOU064, the MOG-specific autoantibody levels, total IgM and IgG subclasses were markedly higher as compared to naive mice. LOU064 treatment had no effect on the MOG-specific IgM and IgG responses in serum compared to vehicle treated mice.
# [4] = test system: neuroinflammation signature in microglia; assay: scRNA-seq analysis of brains and spinal cords of RatMOG EAE mice; assay type: in vivo, mouse; details: LOU064 vs controls
# Method: 10X Genomics Chromium raw sequencing reads were processed with Cell Ranger [Zheng, G. et al. (2017), Nat Commun 8, 14049]. All subsequent analyses were carried out in R v4.1 and Bioconductor v3.14, loosely following the guidelines in “Orchestrating single-cell analysis with Bioconductor” [Amezquita, R. A. et al (2020), Nat Methods 17, 137-145] and using the framework provided by the scuttle, scater [Davis J McCarthy et al. (2017), Bioinformatics, Vol 33, 8, 1179-1186] and scran [Lun ATL et al. (2016), F1000 Research, 5:2122;
# To correct for library size and composition biases, normalization was performed by pooling cells and deconvoluting size factors, followed by a log2 transformation. […]
# For each cell type, pseudobulk differential expression analysis was performed using edgeR [Robinson M D et al. (2010), Bioinformatics, 26(1), 139-140], followed by gene set enrichment analysis with fgsea [Gennady Korotkevich et al., doi: https://doi.org/10.1101/060012] and multiple gene set collection from MSigDB [Arthur Liberson et al., Bioinformatics, Vol 27, 12:1739-1740]. A neuroinflammation signature from the Human Phenotype Ontology [Kohler S. et al. (2021) Nucleic Acids Res. 49(D1):D1207-D1217. doi: 10.1093/nar/gkaa1043] was scored with UCell [Andreatta M. et al. (2021), Comput Struct Biotechnol J. 19:3796-3798] and its significance assessed with a one-tailed Mann-Whitney U test.
# [5] = Phase 2b trial in CSU, efficacy over 12 weeks; assay type: in vivo, human; details: 25 mg b.i.d. regimen
# Method: (§1) In a Phase 2b, randomized, double-blind, placebo-controlled trial evaluating the efficacy and safety of LOU064 over 12 weeks in patients inadequately controlled by Hi-antihistamines, with at least moderately active CSU, patients received LOU064 10 mg q.d. (once daily), 35 mg q.d., 100 mg q.d., 10 mg b.i.d. (twice daily), 25 mg b.i.d., 100 mg b.i.d., or placebo (1:1:1:1:1:1:1 ratio).
# [6] = Co-administration with oral contraceptives; assay type: in vivo; details: co-administered ethinylestradiol or levonorgestrel
# [7] = Phase 2b dose range finding core study in CSU subjects, safety; details: for overall tolerability / safety profile: whole dose range
# Method: as §1
# In a dose range finding study conducted in CSU subjects the following doses are being tested: 10, 35 and 100 mg q.d. as well as 10, 25 and 100 mg b.i.d. and placebo over 12 weeks.
# [8] = 3 mg/kg b.i.d., 1, 5 and 8 hours after dosing
# [9] = 30 mg/kg b.i.d., 1, 5 and 8 hours after dosing
# [10] = core study, any LOU064 dose, listed as remibrutinib
# T1 sequence (P35991 whole entry): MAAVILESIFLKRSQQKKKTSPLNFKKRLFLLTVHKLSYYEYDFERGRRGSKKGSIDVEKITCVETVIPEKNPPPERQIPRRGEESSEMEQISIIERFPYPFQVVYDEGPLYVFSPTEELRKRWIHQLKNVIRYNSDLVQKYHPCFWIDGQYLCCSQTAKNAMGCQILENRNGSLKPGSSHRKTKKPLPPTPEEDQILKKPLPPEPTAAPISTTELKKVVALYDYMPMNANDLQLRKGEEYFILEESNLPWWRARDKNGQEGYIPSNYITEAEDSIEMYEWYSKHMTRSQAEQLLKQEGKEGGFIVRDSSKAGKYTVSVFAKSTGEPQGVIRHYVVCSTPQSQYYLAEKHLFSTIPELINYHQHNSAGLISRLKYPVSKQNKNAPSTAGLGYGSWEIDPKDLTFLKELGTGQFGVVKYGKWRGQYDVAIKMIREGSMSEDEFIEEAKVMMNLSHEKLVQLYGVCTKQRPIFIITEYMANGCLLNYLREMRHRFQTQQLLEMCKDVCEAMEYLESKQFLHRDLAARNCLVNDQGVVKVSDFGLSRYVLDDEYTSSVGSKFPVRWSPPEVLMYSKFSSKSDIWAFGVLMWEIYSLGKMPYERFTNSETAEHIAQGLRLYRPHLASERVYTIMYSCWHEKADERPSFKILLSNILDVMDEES
structure (smiles),measurement,setting,value
"C=CC(=O)N(C)CCOc1c(N)ncnc1-c1cc(F)cc(NC(=O)c2ccc(C3CC3)cc2F)c1C [LOU064, N-(3-(6-amino-5-(2-(N-methylacrylamido)ethoxy)pyrimidin-4-yl)-5-fluoro-2-methylphenyl)-4-cyclopropyl-2-fluorobenzamide]",BTK occupancy in lymph nodes,BTK [1]; [8],maximal for both doses and showed a decay after a 3 mg/kg dose; also recorded: complete BTK occupancy
same,BTK occupancy in spleen,BTK [1]; [8],maximal for both doses and showed a decay after a 3 mg/kg dose; also recorded: complete BTK occupancy
same,BTK occupancy in brain homogenate,"BTK [1]; 3 mg/kg b.i.d., 1 hour timepoint",only minimal BTK occupancy
same,BTK occupancy in brain homogenate,BTK [1]; 30 mg/kg b.i.d.,maximal BTK occupancy with a decline over the dosing interval
same,BTK occupancy in lymph nodes,BTK [1]; [9],a more sustained occupancy after the 30 mg/kg dose
same,BTK occupancy in spleen,BTK [1]; [9],a more sustained occupancy after the 30 mg/kg dose
same,RatMOG (auto)antigen recall proliferation,RatMOG-induced EAE,failed to inhibit (auto)antigen recall proliferation
same,BTK occupancy in brain,BTK [2],intermediate levels; also recorded: only partial BTK occupancy in the brain
same,BTK occupancy in spleen and blood,BTK [2],in a range indicative of maximal BTK occupancy; also recorded: full BTK occupancy in blood and spleen
same,MOG-specific IgM and IgG responses in serum,[3],had no effect; also recorded: did not affect
same,neuroinflammation gene signature in microglia,[4],significant downregulation across most conditions; also recorded: significantly downregulated
same,efficacy in CSU,[5],particularly effective compared to the other doses
same,impact on exposure and efficacy of oral contraceptives,[6],without a major impact on their exposure and efficacy
same,"Grade 3 creatinine elevation, patients","[7]; 10 mg q.d., Week 8, after starting a ketogenic diet",One
same,Grade 3 neutrophil count decrease,"[7]; 35 mg q.d., Week 12",one
same,Grade 3 alanine transaminase elevation,"[7]; 100 mg q.d., Week 8",one
same,deaths,[7]; core study,no deaths
same,"laboratory findings, including blood cell counts",[7]; core study,no significant laboratory findings
same,AE Headache (PT),[7]; [10],9.7%
same,AE Infections and infestations (SOC),[7]; [10],24.0%
same,AE Skin and subcutaneous tissue disorders (SOC),[7]; [10],16.9%
same,Common Terminology Criteria for AEs Grade 3 events (laboratory data),"[7]; core study, in total",three
same,patients with ALT>5xULN,"[7]; core study, normalised on treatment",1 patient
same,overall tolerability / safety profile,[7],well-tolerated across the whole dose range
same,overall tolerability / safety profile,[7]; listed as Remibrutinib,favorable safety profile across the whole dose range
